Consider two compounds from ChEMBL document CHEMBL1144687, “Pim2 inhibitors from the Papua New Guinean plant Cupaniopsis macropetala” (J Nat Prod, 2008).

This assay deals with Serine/threonine-protein kinase pim-2 (Homo sapiens, UniProt Q9P1W9). The experiment in a line: Inhibition of Pim2 kinase.
Chain of Serine/threonine-protein kinase pim-2 (Q9P1W9 whole entry): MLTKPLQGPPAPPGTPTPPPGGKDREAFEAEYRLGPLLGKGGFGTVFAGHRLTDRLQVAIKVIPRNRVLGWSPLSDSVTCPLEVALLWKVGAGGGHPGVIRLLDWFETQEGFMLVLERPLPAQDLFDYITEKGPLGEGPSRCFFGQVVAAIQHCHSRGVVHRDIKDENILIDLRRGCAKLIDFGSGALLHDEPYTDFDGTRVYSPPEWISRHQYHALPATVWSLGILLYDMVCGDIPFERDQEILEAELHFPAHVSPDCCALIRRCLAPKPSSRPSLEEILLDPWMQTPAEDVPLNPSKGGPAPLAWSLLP

As to `NCCc1ccc(OC(=O)c2cc(O)c(O)c(O)c2)cc1` [GALLOYL TYRAMINE], half-maximal inhibition (IC50) was put at 161 µM. The figure for `C[C@@H]1O[C@@H](Oc2c(-c3ccc(O)c(O)c3)oc3cc(O)cc(O)c3c2=O)[C@H](O)[C@H](O)[C@H]1O` [QUERCITRIN] is 25 µM.
